The target of assay [1] is T1, fibrin (in vitro human plasma clot) (Homo sapiens, UniProt P02671+P02675+P02679).
T1 construct: about 400 μl of human plasma containing the radiolabelled substrate; from tissue; host or cells: human plasma, clotted in vitro with added thrombin and calcium chloride
T1 sequence (P02671 20-644 isoform P02671-2 limits assumed): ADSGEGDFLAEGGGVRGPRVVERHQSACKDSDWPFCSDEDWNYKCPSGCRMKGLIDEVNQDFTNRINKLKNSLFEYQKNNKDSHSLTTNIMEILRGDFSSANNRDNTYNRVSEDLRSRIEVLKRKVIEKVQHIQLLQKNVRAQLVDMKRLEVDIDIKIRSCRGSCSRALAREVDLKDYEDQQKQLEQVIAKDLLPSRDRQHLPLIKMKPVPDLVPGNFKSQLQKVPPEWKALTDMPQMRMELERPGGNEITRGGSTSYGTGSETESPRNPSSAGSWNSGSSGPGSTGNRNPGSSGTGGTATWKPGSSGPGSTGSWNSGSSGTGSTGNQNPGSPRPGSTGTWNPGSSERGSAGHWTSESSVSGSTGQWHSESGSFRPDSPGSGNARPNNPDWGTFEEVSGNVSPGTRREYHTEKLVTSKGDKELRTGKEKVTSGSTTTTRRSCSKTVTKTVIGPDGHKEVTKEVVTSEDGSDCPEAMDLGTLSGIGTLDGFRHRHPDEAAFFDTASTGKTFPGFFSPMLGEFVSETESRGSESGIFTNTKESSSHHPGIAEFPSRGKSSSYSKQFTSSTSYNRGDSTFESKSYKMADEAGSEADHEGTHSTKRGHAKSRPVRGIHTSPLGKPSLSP
T1 sequence (P02675 45-491 limits assumed): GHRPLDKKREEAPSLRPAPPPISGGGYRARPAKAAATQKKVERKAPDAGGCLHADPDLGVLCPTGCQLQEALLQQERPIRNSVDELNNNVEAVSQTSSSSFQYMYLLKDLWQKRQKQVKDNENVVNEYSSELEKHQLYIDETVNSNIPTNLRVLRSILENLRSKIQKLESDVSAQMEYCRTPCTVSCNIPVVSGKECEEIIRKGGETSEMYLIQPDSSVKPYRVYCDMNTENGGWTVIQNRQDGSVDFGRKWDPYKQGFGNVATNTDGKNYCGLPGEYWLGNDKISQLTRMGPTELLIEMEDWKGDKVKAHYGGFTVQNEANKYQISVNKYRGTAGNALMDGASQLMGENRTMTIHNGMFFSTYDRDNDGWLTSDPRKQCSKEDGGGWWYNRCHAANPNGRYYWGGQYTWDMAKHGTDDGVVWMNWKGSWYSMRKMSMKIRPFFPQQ
T1 sequence (P02679 27-437 isoform P02679-2 limits assumed): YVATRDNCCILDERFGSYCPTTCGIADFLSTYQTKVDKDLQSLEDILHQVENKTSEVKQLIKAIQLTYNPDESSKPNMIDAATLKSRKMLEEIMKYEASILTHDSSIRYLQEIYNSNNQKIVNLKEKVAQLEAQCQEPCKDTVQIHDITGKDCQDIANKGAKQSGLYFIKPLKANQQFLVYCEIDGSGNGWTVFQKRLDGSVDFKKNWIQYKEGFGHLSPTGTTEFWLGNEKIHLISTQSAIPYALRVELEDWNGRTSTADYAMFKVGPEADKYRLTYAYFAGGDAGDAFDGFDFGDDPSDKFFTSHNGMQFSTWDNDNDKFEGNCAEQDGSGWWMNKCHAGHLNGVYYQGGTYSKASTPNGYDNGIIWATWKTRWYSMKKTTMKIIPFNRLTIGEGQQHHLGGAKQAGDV
Nature of the assay: Incorporation into human plasma clots in vitro. As to conditions: for % specific uptake: % retained (with thrombin) - % retained (no thrombin); for % retained (no thrombin): control without thrombin and calcium chloride (non-specific binding); for % retained (with thrombin): human plasma clot, 60 minutes, ca. 20° C. It is filed as biochemical. Here is the method: Incorporation of radiolabelled substrates into fibrin was investigated by induction of an in vitro human plasma clot in the following manner. To a siliconised 5 ml glass vial was added, (a) 800 μl of Tris(hydroxymethyl)aminomethane buffered saline pH 7.5 containing calcium chloride (50 mM Tris, 150 mM sodium chloride, 4 mM calcium chloride.), (b) about 40 μl of physiological salt solution containing 100 units of thrombin per ml, (c) about 400 μl of human plasma containing the radiolabelled substrate at a concentration of typically 10 kBq/ml. To aid induction of clot a roughened glass rod was added to the reaction vial. Control vials were prepared similarly but with the omission of thrombin and calcium chloride.
After incubation of the test solution at ambient laboratory temperature (ca. 20° C.) for 60 minutes the reaction was discontinued with the addition of about 400 μl of a cold solution of 33.5 mM ethylenediaminetetra-acetic acid disodium salt. Clots were separated from serum by vacuum filtration onto […] nitrocellulose filters (pre-soaked in 1.5% BSA/tris(hydroxymethyl)aminoethae buffered saline pH 7.5 containing 0.1% Tween 20) and washed with about 2×10 ml of tris(hydroxymethyl)aminomethane buffered saline pH 7.5 containing Tween 20 to a final concentration of 0.1% v/v. The proportion of total radioactivity was calculated by counting in suitable detection apparatus.
The fraction of radioactivity retained on the filter, after subtraction of the non-specific binding determined from the control, is a measure of incorporation into the filtered clots.

Assay [2] in a line: Incorporation into clots induced in a rat model (rat inferior vena cava model). Particulars: for % id/g (clot) / Rel. Conc. (cpm/g of clot by dose/g animal): sacrificed after 60 min. It is filed as in vivo, rat (Male Wistar). Here is the method:
The rats (Male Wistar, 250–350 g) were anaesthetised with 15% urethane. After laparotomy, the vena cava was isolated and freed of surrounding fat tissue. […] The compounds were injected 5 min (fresh clot) and 60 min (aged clot) post-induction. After 60 min the animals were sacrificed and the clot removed, weighed and counted. Other tissues e.g. blood, lung, heart, were also dissected and counted. The uptake of tracer into the clot was determined as the relative concentration (cpm/g of clot by dose/g animal) and clot to background tissue.

[3] abbreviates: Aged Clots: injected 60 min post-induction.
[4] abbreviates: Fresh Clots: injected 5 min post-induction.

Entries after “also recorded” stand apart in the source; their conditions may differ.

Turning to “Ac-NAEAVSPYTLLKG-Pn216 (also: 99mTc complex) [^99mTc-Cmpd 14]”, in assay [1], the “% specific uptake” value came out at 2.8%, the “% retained (no thrombin)” value is listed as 0.5%, the “% retained (with thrombin)” value came to 3.3% and the “in vitro clot uptake (in words)” value was “significant reduction in uptake; also recorded: large drop in uptake”. In addition, in assay [2] (Aged Clots), the Clot/blood worked out at 1.4, the Clot/heart is listed as 2, the Clot/liver amounted to 0.7 and the Clot/lung is given as 1.3. In assay [2] (setting [3]), the “% id/g (clot)” value turned out to be 0.6 ± 0.4 % id/g and the “Rel. Conc. (cpm/g of clot by dose/g animal)” value turned out to be 1.4 ± 0.8. In assay [2] (Fresh Clots), this substance came in with a Clot/blood of 2, a Clot/heart of 3, a Clot/liver of 0.7 and a Clot/lung of 1.5. For the same substance, in assay [2] (setting [4]), the “% id/g (clot)” value was 0.5 ± 0.1 % id/g and the “Rel. Conc. (cpm/g of clot by dose/g animal)” value is 1.2 ± 0.2.
“Ac-NQEAVSPYTLLKG-Pn216 (also: 99mTc complex) [^99mTc-Cmpd 13]”: in assay [1], the “% specific uptake” value came to 56.8%, the “% retained (no thrombin)” value stood at 0.2% and the “% retained (with thrombin)” value turned out to be 57.0%. In assay [2] (Aged Clots), this substance came in with a Clot/blood of 6, a Clot/heart of 29, a Clot/liver of 19 and a Clot/lung of 9. Further, in assay [2] (setting [3]), the “% id/g (clot)” value came to 4.5 ± 1.5 % id/g and the “Rel. Conc. (cpm/g of clot by dose/g animal)” value is listed as 10.4 ± 3.0. For the same substance, in assay [2] (Fresh Clots), the Clot/blood is given as 7, the Clot/heart stood at 18, the Clot/liver came out at 18 and the Clot/lung was found to be 8. Moreover, in assay [2] (setting [4]), the “% id/g (clot)” value is 3.4 ± 0.7 % id/g and the “Rel. Conc. (cpm/g of clot by dose/g animal)” value turned out to be 7.9 ± 1.6.
On to “Ac-NQEQ(D-V)(D-S)(D-P)(D-Y)(D-T)(D-L)(D-L)(D-K)G-Pn44 [^99mTc-Cmpd 35]”, for which, in assay [1], the “% specific uptake” value is recorded as 15.3%, the “% retained (no thrombin)” value is on record as 0.6% and the “% retained (with thrombin)” value is 15.9%. In addition, in assay [2] (Aged Clots), the Clot/blood is reported as 1, the Clot/heart is 1, the Clot/liver worked out at 2 and the Clot/lung is given as 0.5. For the same substance, in assay [2] (setting [3]), the “% id/g (clot)” value amounted to 0.6 ± 0.1 % id/g and the “Rel. Conc. (cpm/g of clot by dose/g animal)” value was found to be 1.5 ± 0.4. In assay [2] (Fresh Clots), this substance returned a Clot/blood of 2, a Clot/heart of 4, a Clot/liver of 2 and a Clot/lung of 2. In addition, in assay [2] (setting [4]), the “% id/g (clot)” value is recorded as 1.2 ± 0.2 % id/g and the “Rel. Conc. (cpm/g of clot by dose/g animal)” value worked out at 3.7 ± 0.8.
With “Ac-NQEQ(D-V)(D-S)P(D-Y)TLL(D-K)G-Pn216 [^99mTc-Cmpd 31]”, in assay [1], the “% specific uptake” value came out at 7.6%, the “% retained (no thrombin)” value came to 0.1%, the “% retained (with thrombin)” value was found to be 7.7% and the “in vitro clot uptake (in words)” value was “significant reduction in uptake”. Moreover, in assay [2] (Aged Clots), the Clot/blood was 0.6, the Clot/heart is listed as 9, the Clot/liver was 2 and the Clot/lung turned out to be 4. Also, in assay [2] (setting [3]), the “% id/g (clot)” value came to 0.2 ± 0.1 % id/g and the “Rel. Conc. (cpm/g of clot by dose/g animal)” value was determined as 0.6 ± 0.2. In assay [2] (Fresh Clots), this substance had a Clot/blood of 0.6, a Clot/heart of 2, a Clot/liver of 3 and a Clot/lung of 1. Moreover, in assay [2] (setting [4]), the “% id/g (clot)” value is listed as 0.3 ± 0.2 % id/g and the “Rel. Conc. (cpm/g of clot by dose/g animal)” value is given as 0.9 ± 0.6.
Regarding “Ac-NQEQVSP(D-Y)TLL(D-K)G-Pn216 [^99mTc-Cmpd 29]”, in assay [1], the “% specific uptake” value amounted to 21.0%, the “% retained (no thrombin)” value is on record as 0.1% and the “% retained (with thrombin)” value is listed as 21.1%. Moreover, in assay [2] (Aged Clots), the Clot/blood amounted to 11, the Clot/heart is recorded as 67, the Clot/liver is listed as 29 and the Clot/lung was 30. Further, in assay [2] (setting [3]), the “% id/g (clot)” value was determined as 3.8 ± 0.4 % id/g and the “Rel. Conc. (cpm/g of clot by dose/g animal)” value came to 10.0 ± 1.7. In assay [2] (Fresh Clots), this substance registered a Clot/blood of 14, a Clot/heart of 44, a Clot/liver of 44 and a Clot/lung of 20. In assay [2] (setting [4]), the “% id/g (clot)” value is 4.7 ± 1.9 % id/g and the “Rel. Conc. (cpm/g of clot by dose/g animal)” value came to 13.0 ± 4.9.
As to “Ac-NQEQVSP(D-Y)TLL(D-K)βAla-Pn216 [^99mTc-Cmpd 33]”, in assay [1], the “% specific uptake” value is reported as 63.8%, the “% retained (no thrombin)” value was 0.1% and the “% retained (with thrombin)” value was found to be 63.9%. In assay [2] (Aged Clots), this substance gave a Clot/blood of 16, a Clot/heart of 24, a Clot/liver of 16 and a Clot/lung of 9. For the same substance, in assay [2] (setting [3]), the “% id/g (clot)” value is reported as 2.2 ± 0.6 % id/g and the “Rel. Conc. (cpm/g of clot by dose/g animal)” value came to 6.7 ± 1.6. Besides, in assay [2] (Fresh Clots), the Clot/blood came out at 11, the Clot/heart is 32, the Clot/liver amounted to 28 and the Clot/lung worked out at 16. In addition, in assay [2] (setting [4]), the “% id/g (clot)” value is reported as 2.7 ± 0.2 % id/g and the “Rel. Conc. (cpm/g of clot by dose/g animal)” value is on record as 7.8 ± 0.6.
In the case of “Ac-NQEQVSP(I2-Y)TLLKG-Pn216 [^99mTc-Cmpd 23]”, in assay [1], the “% specific uptake” value worked out at 63.7%, the “% retained (no thrombin)” value was 0.1% and the “% retained (with thrombin)” value is listed as 63.8%. Also, in assay [2] (Aged Clots), the Clot/blood is listed as 13, the Clot/heart is reported as 1, the Clot/liver is 1 and the Clot/lung amounted to 1. In assay [2] (setting [3]), the “% id/g (clot)” value came out at 7.5 ± 2.5 % id/g and the “Rel. Conc. (cpm/g of clot by dose/g animal)” value is on record as 17.6 ± 4.6. In assay [2] (Fresh Clots), this substance returned a Clot/blood of 6, a Clot/heart of 17, a Clot/liver of 21 and a Clot/lung of 6. Further, in assay [2] (setting [4]), the “% id/g (clot)” value amounted to 7.6 ± 1.8 % id/g and the “Rel. Conc. (cpm/g of clot by dose/g animal)” value turned out to be 18.2 ± 4.1.

Source of the values: US7049289B1, “Labelled glutamine and lysine analogues” (Amersham PLC, priority 1998, dated 2006).
